Results reported in patent US10610520B2, “Heterocyclic compound” (Takeda Pharmaceutical Company Limited, priority 2016, dated 2020).

Biological target: T1, His-hMAGL (recombinant polyhistidine tagged human MAGL protein) (Homo sapiens, UniProt Q99685)
T1 construct: made in house; host or cells: E. coli BL21(DE3)
T1 sequence (Q99685 1-303): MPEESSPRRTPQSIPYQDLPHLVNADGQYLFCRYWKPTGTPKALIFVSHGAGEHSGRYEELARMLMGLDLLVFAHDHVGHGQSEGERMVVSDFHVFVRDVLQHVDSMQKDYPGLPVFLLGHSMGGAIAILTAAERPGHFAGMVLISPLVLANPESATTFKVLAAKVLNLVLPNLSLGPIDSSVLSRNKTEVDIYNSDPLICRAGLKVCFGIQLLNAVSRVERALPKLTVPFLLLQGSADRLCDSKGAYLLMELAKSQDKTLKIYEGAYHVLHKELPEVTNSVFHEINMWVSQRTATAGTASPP
Assay: Measurement of MAGL inhibitory activity (arachidonic acid production from 2-arachidonylglycerol, RapidFire-mass spectrometry)
Format: biochemical
Conditions: MAGL inhibitory rate, test compound 10 μM, 60 min preincubation, 2-arachidonylglycerol substrate
Procedure: The His-hMAGL obtained above was diluted with enzyme reaction buffer (10 mM Tris-HCl, pH 7.5, 1 mM EDTA, 0.025 (w/v) % Triton X-100, 0.01% Bovine serum albumin) to a concentration of 7.5 ng/mL. […] Thereafter, to each well was added 5 μL of 150 μM 2-arachidonylglycerol (Tocris Bioscience), and the mixture was incubated at room temperature for 10 min. Then, 10 μL of 2% formic acid (Wako Pure Chemical Industries, Ltd.) was added to stop the reaction. Furthermore, acetonitrile (50 μL) containing 3 μM arachidonic acid-d8 (Cayman Chemical Company) was added and the mixture was stirred.
The amount of arachidonic acid in the obtained enzyme reaction mixture was calculated by measuring by RapidFire-mass spectrometry and correcting by the amount of arachidonic acid-d8. High Throughput online solid phase extraction was performed using RapidFire 300™ system (Agilent Technologies, Inc.). Samples were loaded on SPE C4 cartridge (Agilent Technologies, Inc.) and desalted with 0.2 (v/v) % acetic acid (Wako Pure Chemical Industries, Ltd.) in ultrapure water/acetonitrile (70/30, v/v) at a flow rate of 1.5 mL/min, eluted at a flow rate of 0.5 mL/min with 0.2 (v/v) % acetic acid dissolved in acetonitrile/ultrapure water (90/10, v/v), and injected into the mass spectrometry part. The injection needle was washed with ultrapure water (500 millisecond) and acetonitrile (500 millisecond) to minimize carry-over. […] The RapidFire300 system was controlled by RapidFire UI software version 3.6 (Agilent Technologies, Inc.).
The mass spectrometry of the resultant product was performed using API4000™ triple quadrupole mass spectrometer (AB SCIEX) equipped with an electrospray ion sauce (TurboIon Spray™) in a negative selected reaction monitoring (SRM) mode. The conditions of SRM are shown below. The parameters of the instrument were optimized as follows: capillary temperature 600° C., ion spray voltage −4.5 kV, collision gas 8, curtain gas 15 psi, ion source gas 1 60 psi, ion source gas 2 60 psi. The mass spectrometer was controlled by Analyst™ software version 1.5.1 (AB SCIEX). The peak area integration was analyzed using RapidFire integrator software version 3.6 (Agilent Technologies, Inc.).
MAGL inhibitory rate (%) was calculated according to the following calculation formula. (1-(arachidonic acid production amount of test compound addition group−arachidonic acid production amount of enzyme-free group)÷(arachidonic acid production amount of test compound-free group−arachidonic acid production amount of enzyme-free group))×100

SMILES	inhibition at 10 µM [%]
CC1(C2CCN(C(=O)N3CC4(CCC(=O)N4)C3)CC2)Cc2ccccc2O1 (centres unmarked) [Example 2, 2-((4-(2-methyl-2,3-dihydro-1-benzofuran-2-yl)piperidin-1-yl)carbonyl)-2,5-diazaspiro[3.4]octan-6-one]	100
O=C1CCC2(CN(C(=O)N3CCC(COc4ccc(C(F)(F)F)cc4Cl)CC3)C2)N1 [Example 3, 2-((4-((2-chloro-4-(trifluoromethyl)phenoxy)methyl)piperidin-1-yl)carbonyl)-2,5-diazaspiro[3.4]octan-6-one]	102
CC(Oc1ccc(F)cc1Cl)C1CN(C(=O)N2CC3(CCC(=O)N3)C2)C1 (centres unmarked) [Example 4, 2-((3-(1-(2-chloro-4-fluorophenoxy)ethyl)azetidin-1-yl)carbonyl)-2,5-diazaspiro[3.4]octan-6-one]	98
O=C1CCC2(CN(C(=O)c3ccc(COc4ccccc4C(F)(F)F)cc3)C2)N1 [Example 5, 2-(4-((2-(trifluoromethyl)phenoxy)methyl)benzoyl)-2,5-diazaspiro[3.4]octan-6-one]	99
O=C1CCC2(CN(C(=O)c3ccc(OCc4ccccc4)cc3)C2)N1 [Example 6, 2-(4-(benzyloxy)benzoyl)-2,5-diazaspiro[3.4]octan-6-one]	87
CC(Oc1ccc(F)cc1Cl)C1CCN(C(=O)N2CC3(CCC(=O)N3)C2)CC1 (centres unmarked) [Example 7, 2-((4-(1-(2-chloro-4-fluorophenoxy)ethyl)piperidin-1-yl)carbonyl)-2,5-diazaspiro[3.4]octan-6-one]	103
O=C1CCC2(CN(C(=O)N3CC(COc4ccc(C(F)(F)F)cc4F)C3)C2)N1 [Example 8, 2-((3-((2-fluoro-4-(trifluoromethyl)phenoxy)methyl)azetidin-1-yl)carbonyl)-2,5-diazaspiro[3.4]octan-6-one]	100
O=C1CCC2(CN(C(=O)N3CC(OCc4ccc(C(F)(F)F)cc4F)C3)C2)N1 [Example 9, 2-((3-((2-fluoro-4-(trifluoromethyl)benzyl)oxy)azetidin-1-yl)carbonyl)-2,5-diazaspiro[3.4]octan-6-one]	98
CC(Oc1ccc(C(F)(F)F)cc1F)C1CN(C(=O)N2CC3(CCC(=O)N3)C2)C1 (centres unmarked) [Example 10, 2-((3-(1-(2-fluoro-4-(trifluoromethyl)phenoxy)ethyl)azetidin-1-yl)carbonyl)-2,5-diazaspiro[3.4]octan-6-one]	101
O=C1CCC2(CN(C(=O)c3ccc(-c4ccccc4)cc3)C2)N1 [Example 12, 2-(biphenyl-4-ylcarbonyl)-2,5-diazaspiro[3.4]octan-6-one]	92
O=C1CCC2(CN(C(=O)c3ccc4nc(-c5ccc(F)cc5)oc4c3)C2)N1 [Example 13, 2-((2-(4-fluorophenyl)-1,3-benzoxazol-6-yl)carbonyl)-2,5-diazaspiro[3.4]octan-6-one]	89
O=C1CCC2(CN(C(=O)c3ccc4c(ccn4-c4ccc(C(F)(F)F)cn4)c3)C2)N1 [Example 14, 2-((1-(5-(trifluoromethyl)pyridin-2-yl)-1H-indol-5-yl)carbonyl)-2,5-diazaspiro[3.4]octan-6-one]	96
O=C1CCC2(CN(C(=O)N3CC(COc4ccc(Br)cc4F)C3)C2)N1 [Example 16, 2-((3-((4-bromo-2-fluorophenoxy)methyl)azetidin-1-yl)carbonyl)-2,5-diazaspiro[3.4]octan-6-one]	104
O=C1CCC2(CN(C(=O)N3CC(COc4ccc(C(F)(F)F)cc4Cl)C3)C2)N1 [Example 17, 2-((3-((2-chloro-4-(trifluoromethyl)phenoxy)methyl)azetidin-1-yl)carbonyl)-2,5-diazaspiro[3.4]octan-6-one]	98
O=C1CCC2(CN(C(=O)N3CC(COc4ccc5c(c4)CCCC5)C3)C2)N1 [Example 18, 2-((3-((5,6,7,8-tetrahydronaphthalen-2-yloxy)methyl)azetidin-1-yl)carbonyl)-2,5-diazaspiro[3.4]octan-6-one]	100
O=C1CCC2(CN(C(=O)N3CC(COc4ccc5c(c4)CCC5)C3)C2)N1 [Example 19, 2-((3-((2,3-dihydro-1H-inden-5-yloxy)methyl)azetidin-1-yl)carbonyl)-2,5-diazaspiro[3.4]octan-6-one]	102
O=C1CCC2(CN(C(=O)c3sc4cc(C(F)(F)F)ccc4c3Cl)C2)N1 [Example 20, 2-((3-chloro-6-(trifluoromethyl)-1-benzothiophen-2-yl)carbonyl)-2,5-diazaspiro[3.4]octan-6-one]	104
Cc1ccc(OCC2CN(C(=O)N3CC4(CCC(=O)N4)C3)C2)c(Cl)c1 [Example 21, 2-((3-((2-chloro-4-methylphenoxy)methyl)azetidin-1-yl)carbonyl)-2,5-diazaspiro[3.4]octan-6-one]	102
O=C1CCC2(CN(C(=O)N3CC(COc4ccc(C(F)(F)F)c(F)c4)C3)C2)N1 [Example 22, 2-((3-((3-fluoro-4-(trifluoromethyl)phenoxy)methyl)azetidin-1-yl)carbonyl)-2,5-diazaspiro[3.4]octan-6-one]	100
Cc1cc(F)ccc1-c1ccc(OCC2CN(C(=O)N3CC4(CCC(=O)N4)C3)C2)c(F)c1 [Example 23, 2-((3-(((3,4′-difluoro-2′-methylbiphenyl-4-yl)oxy)methyl)azetidin-1-yl)carbonyl)-2,5-diazaspiro[3.4]octan-6-one]	102
O=C1CCC2(CN(C(=O)N3CC(COc4cc(Br)c(C(F)(F)F)cc4F)C3)C2)N1 [Example 24, 2-((3-((5-bromo-2-fluoro-4-(trifluoromethyl)phenoxy)methyl)azetidin-1-yl)carbonyl)-2,5-diazaspiro[3.4]octan-6-one]	103
O=C1CCC2(CN(C(=O)[C@H]3C[C@@H](COc4ccc(F)cc4Cl)C3)C2)N1 [Example 25, 2-((cis-3-((2-chloro-4-fluorophenoxy)methyl)cyclobutyl)carbonyl)-2,5-diazaspiro[3.4]octan-6-one]	91
O=C1CCC2(CN(C(=O)[C@H]3C[C@H](COc4ccc(F)cc4Cl)C3)C2)N1 [Example 26, 2-((trans-3-((2-chloro-4-fluorophenoxy)methyl)cyclobutyl)carbonyl)-2,5-diazaspiro[3.4]octan-6-one]	98
O=C1CCC2(CN(C(=O)c3cccc(C(F)(F)c4ccccc4)c3)C2)N1 [Example 27, 2-(3-(difluoro(phenyl)methyl)benzoyl)-2,5-diazaspiro[3.4]octan-6-one]	94
O=C1CCC2(CN(C(=O)c3ccc(C(F)(F)c4ccccc4)cc3)C2)N1 [Example 28, 2-(4-(difluoro(phenyl)methyl)benzoyl)-2,5-diazaspiro[3.4]octan-6-one]	97
O=C1CCC2(CN(C(=O)N3CCC(C(F)(F)c4ccc(F)cc4)CC3)C2)N1 [Example 29, 2-((4-(difluoro(4-fluorophenyl)methyl)piperidin-1-yl)carbonyl)-2,5-diazaspiro[3.4]octan-6-one]	98
O=C1CCC2(CN(C(=O)c3cc4ccc(C(F)(F)F)cc4s3)C2)N1 [Example 30, 2-((6-(trifluoromethyl)-1-benzothiophen-2-yl)carbonyl)-2,5-diazaspiro[3.4]octan-6-one]	94
O=C1CCC2(CN(C(=O)c3ccc(-c4ccccc4)cc3F)C2)N1 [Example 31, 2-((3-fluorobiphenyl-4-yl)carbonyl)-2,5-diazaspiro[3.4]octan-6-one]	84

Same assay, conditions: MAGL inhibitory rate, test compound 10 μM, 60 min preincubation, 2-arachidonylglycerol substrate; 10 µM

SMILES	% inhibition (10 μM) [%]
O=C1NC2(CO1)CN(C(=O)[C@H]1C[C@@H](OCc3ccc(C(F)(F)F)cc3F)C1)C2 (stereo in doubt) [Example 355, 2-((cis-3-((2-fluoro-4-(trifluoromethyl)benzyl)oxy)cyclobutyl)carbonyl)-7-oxa-2,5-diazaspiro[3.4]octan-6-one]	99
